Experimental findings from patent US20080194546A1, “Pyrido-, Pyrazo- and Pyrimido-Pyrimidine Derivatives as mTOR Inhibitors” (KuDOS Pharmaceuticals Limited, priority 2005, published 2008) are described below.

This test addresses T1, mTOR (Homo sapiens, UniProt P42345).
T1 construct: mTOR protein was isolated from HeLa cell cytoplasmic extract by immunoprecipitation; endogenous in cells; host or cells: HeLa cell cytoplasmic extract (immunoprecipitate)
The test can be described thus: Biological Assay: mTOR enzyme activity, mTOR immunoprecipitated from HeLa cell cytoplasmic extract, recombinant PHAS-1 as substrate. The test is classed as biochemical. The note with it: Biological Assay, upper bounds; read-out: IC50 values against mTOR.
From the text: For mTOR enzyme activity assays, mTOR protein was isolated from HeLa cell cytoplasmic extract by immunoprecipitation, and activity determined essentially as described previously using recombinant PHAS-1 as a substrate (ref. 21).
In general, IC50 refers to the concentration needed to halve the response being measured. For the compound `C[C@@H]1CN(c2nc(N3CCOCC3)c3ccc(Nc4ccncn4)nc3n2)C[C@H](C)O1` [Example 2bb], the IC50 is < 1 µM.

Take `Cc1cccnc1Nc1ccc2c(N3CCOCC3)nc(N3C[C@@H](C)O[C@@H](C)C3)nc2n1` [Example 2bg]: the IC50 was < 10 µM.

Consider `Cc1ccc(Nc2ccc3c(N4CCOCC4)nc(N4C[C@@H](C)O[C@@H](C)C4)nc3n2)nc1` [Example 2bd], for which the IC50 is < 1 µM.

Take `C[C@@H]1CN(c2nc(N3CCOCC3)c3ccc(N)nc3n2)C[C@H](C)O1` [Example 3a]: the concentration for half-maximal inhibition (IC50) was < 1 µM.

Regarding `COC(=O)c1ccc(Nc2ccc3c(N4CCOCC4)nc(N4C[C@@H](C)O[C@@H](C)C4)nc3n2)cc1` [Example 2g], the half-maximal inhibitory concentration (IC50) was < 1 µM.

Consider `C[C@@H]1CN(c2nc(N3CCOCC3)c3ccc(NCC4CC4)nc3n2)C[C@H](C)O1` [Example 2aj], for which the IC50 was < 10 µM.

`Cc1cnccc1Nc1ccc2c(N3CCOCC3)nc(N3C[C@@H](C)O[C@@H](C)C3)nc2n1` [Example 2t]: the IC50 is < 1 µM.

For `C[C@@H]1CN(c2nc(N3CCOCC3)c3ccc(Nc4cccc(C(=O)c5ccccc5)c4)nc3n2)C[C@H](C)O1` [Example 2m], the IC50 was < 10 µM.

In the case of `C[C@@H]1CN(c2nc(N3CCOCC3)c3ccc(-c4ccc5c(c4)OCO5)nc3n2)C[C@H](C)O1` [Example 1ak], the half-maximal inhibitory concentration (IC50) is < 10 µM.

For `C[C@@H]1CN(c2nc(N3CCOCC3)c3ccc(-c4ccc(C#N)cc4)nc3n2)C[C@H](C)O1` [Example 1n], the IC50 is < 0.1 µM.

With `CC(=O)Nc1cccc(-c2ccc3c(N4CCOCC4)nc(N4C[C@@H](C)O[C@@H](C)C4)nc3n2)c1` [Example 1ab], the IC50 is < 1 µM.

Consider `C[C@@H]1CN(c2nc(N3CCOCC3)c3ccc(Nc4ccccc4)nc3n2)C[C@H](C)O1` [Example 2a], for which the IC50 is < 1 µM.

In the case of `COc1ccc(-c2ccc3c(N4CCOCC4)nc(N4C[C@@H](C)O[C@@H](C)C4)nc3n2)cc1F` [Example 1w], the IC50 was < 1 µM.

In the case of `Cc1cc(-c2ccc3c(N4CCOCC4)nc(N4C[C@@H](C)O[C@@H](C)C4)nc3n2)cs1` [Example 1y], the IC50 was < 1 µM.

With `COc1ccc(-c2ccc3c(N4CCOCC4)nc(N4C[C@@H](C)O[C@@H](C)C4)nc3n2)cc1OC` [Example 1ah], the IC50 was < 1 µM.

On to `Cc1ccc(-c2ccc3c(N4CCOCC4)nc(N4C[C@@H](C)O[C@@H](C)C4)nc3n2)s1` [Example 1t], for which the IC50 was < 1 µM.

On to `C[C@@H]1CN(c2nc(N3CCOCC3)c3ccc(NC(=O)c4nc[nH]c4N)nc3n2)C[C@H](C)O1` [Example 5g], for which the IC50 was < 10 µM.

In the case of `C[C@@H]1CN(c2nc(N3CCOCC3)c3ccc(NC(=O)C4CCCC4)nc3n2)C[C@H](C)O1` [Example 5b], the IC50 is < 10 µM.

As to `Cc1cc([N+](=O)[O-])cc(Cl)c1Nc1ccc2c(N3CCOCC3)nc(N3C[C@@H](C)O[C@@H](C)C3)nc2n1` [Example 2l], the IC50 is < 10 µM.

For the compound `C[C@@H]1CN(c2nc(N3CCOCC3)c3ccc(Nc4nccc5cccnc45)nc3n2)C[C@H](C)O1` [Example 2av], the IC50 was < 1 µM.

Take `C/C=C/C(=O)Nc1ccc2c(N3CCOCC3)nc(N3C[C@@H](C)O[C@@H](C)C3)nc2n1` [Example 5c]: the IC50 was < 1 µM.

Consider `C[C@@H]1CN(c2nc(N3CCOCC3)c3ccc(-c4cncnc4)nc3n2)C[C@H](C)O1` [Example 1az], for which the IC50 is < 10 µM.

On to `Cc1ccc(-c2ccc3c(N4CCOCC4)nc(N4C[C@@H](C)O[C@@H](C)C4)nc3n2)cc1` [Example 1d], for which the IC50 is < 0.1 µM.

For the compound `Cc1ccc(-n2nc(C)cc2Nc2ccc3c(N4CCOCC4)nc(N4C[C@@H](C)O[C@@H](C)C4)nc3n2)cc1` [Example 2y], the IC50 was < 10 µM.

As for `Cc1nnc(Nc2ccc3c(N4CCOCC4)nc(N4C[C@@H](C)O[C@@H](C)C4)nc3n2)o1` [Example 2ao], the IC50 is < 10 µM.

On to `C[C@@H]1CN(c2nc(N3CCOCC3)c3ccc(-c4ccc(Cl)s4)nc3n2)C[C@H](C)O1` [Example 1al], for which the IC50 is < 1 µM.

As for `Cc1cccc(-c2ccc3c(N4CCOCC4)nc(N4C[C@@H](C)O[C@@H](C)C4)nc3n2)c1` [Example 1aj], the IC50 is < 1 µM.
